For orientation: IC50 means the concentration that gives 50% inhibition.

Where two headings read alike, the source gives them in different places.

Common to all, as to assay type: cell-based
The test system of one experiment is SK-BR-3. Put plainly: Inhibition of proliferation of cells SK-BR-3 (CelltiterGlo, 72 h). As for the experimental part:
(§1) • (1) Cell plating: first, tumor cells SK-BR-3 were cultured using a corresponding culture medium, trypsinized, centrifuged, resuspended for counting, adjusted to an appropriate concentration, and then plated on a 384-well plate. • (2) Co-incubation of the compounds and tumor cells: after the cells adhered to the wall, 100 nL of a diluted bioactive substance (test compound) was added to the cell culture plate using ECHO, the final concentration of DMSO in wells of the cell plate was 0.33%, and the incubation was performed in an incubator at 37° C. with 5% CO2 for 72 h. • (3) After the incubation was complete, 30 μL of a CTG reagent (CelltiterGlo kit) was added to each well. The culture was oscillated on a fast oscillator for 2 min, centrifuged at 1,000 rpm for 1 min, and kept away from light at room temperature for 30 min. The chemiluminescence signal value was read using an Envision instrument. • (4) Cell viability detection: IC50 was calculated using GraphPad Prism 8 software, and the IC50 of the compounds was obtained using the following nonlinear fitting formula (see Table 1):
[formula] • Y: inhibition rate; X: log value of compound concentration-,
(§2) [formula] • high-reading control wells: cells with addition of 100 nL DMSO; and • low-reading control wells: cell-free wells.

The subject of the next experiment is MDA-MB-468. Put plainly: Inhibition of proliferation of cells MDA-MB-468 (CelltiterGlo, 72 h). As to the method:
as §1, with “MDA-MB-468” for “SK-BR-3”, “[…]” for “5%”, “2):” for “1):”
[formula] • Y: inhibition rate: X: log value of compound concentration;
as §2
On the technique in general: Cellular ATP, detected with luciferase, serves as a proxy for viable cell number.

A further experiment has as its system NCI-N87. Put plainly: Inhibition of proliferation of cells NCI-N87 (CelltiterGlo, 72 h). As to the method: as §1, with “NCI-N87” for “SK-BR-3”, “[…]” for “5%”, “3):” for “1):”
[formula] • Y: inhibition rate, X: log value of compound concentration;
as §2

The mark [1] stands for this setting: Homo sapiens, SK-BR-3, 72 h, read-out: IC50 (nM), antiproliferative activity on SK-BR-3, SK-BR-3 cells, 72 h, CTG.
Where [2] appears, read: Homo sapiens, MDA-MB-468, 72 h, read-out: IC50 (nM), antiproliferative activity on MDA-MB-468, MDA-MB-468 cells, 72 h, CTG.
Where [3] appears, read: Homo sapiens, NCI-N87, 72 h, read-out: IC50 (nM), antiproliferative activity on cells NCI-N87, NCI-N87 cells, 72 h, CTG.
Setting [4] is: MDA-MB-468 cells, 72 h, CTG, read-out: IC50 (nM), antiproliferative activity on MDA-MB-468.
Where [5] appears, read: NCI-N87 cells, 72 h, CTG, read-out: IC50 (nM), antiproliferative activity on cells NCI-N87.

For the molecule `CC[C@@]1(O)C(=O)OCc2c1cc1n(c2=O)Cc2c-1nc1cc(F)c(C)c3c1c2[C@@H](NC(=O)[C@@H](C)[C@@H](C)O)CCC3` [Compound 39, (2S,3R)—N-((1S,10S)-10-ethyl-6-fluoro-10-hydroxy-5-methyl-11,14-dioxo-1,2,3,4,10,11,14,16-octahydro-13H-cyclohepta[3′,4′:6,7]indolizino[1,2-b]quinolin-1-yl)-3-hydroxy-2-methylbutanamide], the IC50 in the experiment with SK-BR-3 (setting [1]) stood at 11 nM; in the experiment on MDA-MB-468 (setting [2]), 15 nM; in the experiment with NCI-N87 (setting [3]), 9.3 nM.
In the same order, the values of `C=Cc1c(F)cc2nc3c(c4c2c1CC[C@@H]4NC(=O)[C@H]1C[C@@H](O)C1)Cn1c-3cc2c(c1=O)COC(=O)[C@]2(O)CC` [Compound 12, (1S,3R)—N-((1S,9S)-9-ethyl-5-fluoro-9-hydroxy-10,13-dioxo-4-ethenyl-2,3,9,10,13,15-hexahydro-1H,12H-benzo[d]pyrano[3′,4′:6,7]indolizino[1,2-b]quinolin-1-yl)-3-hydroxycyclobutane-1-carboxamide] are 5.7 nM, 9.3 nM and 20 nM.
In the case of “(1S,3S)—N-((1R,10S)-5-cyclopropyl-10-ethyl-6-fluoro-10-hydroxy-11,14-dioxo-1,2,3,4,10,11,14,16-octahydro-13H-cyclohepta[de]pyrano[3′,4′:6,7]indolizino[1,2-b]quinolin-1-yl)-3-hydroxybutane-1-carboxamide [Compound 20-1]”, the IC50 with SK-BR-3 (SK-BR-3 cells, 72 h, CTG, read-out: IC50 (nM), antiproliferative activity on SK-BR-3) turned out to be 21 nM; in the experiment on MDA-MB-468 (setting [4]) it was 15.6 nM; in the experiment with NCI-N87 (setting [5]) it was 26 nM.
For `CC[C@@]1(O)C(=O)OCc2c1cc1n(c2=O)Cc2c-1nc1cc(F)c(C3CC3)c3c1c2[C@@H](NC(=O)[C@@H](O)C1CC1)CCC3` [Compound 33-2, (S)-2-cyclopropyl-N-((1S,10S)-5-cyclopropyl-10-ethyl-6-fluoro-10-hydroxy-11,14-dioxo-1,2,3,4,10,11,14,16-octahydro-13H-cyclohepta[3′,4′:6,7]indolizino[1,2-b]quinolin-1-yl)-2-hydroxyacetamide], the figures for the IC50 with MDA-MB-468 (setting [4]) and in the experiment on NCI-N87 (setting [5]) were 5 nM and 9 nM, respectively.
`CC[C@@]1(O)C(=O)OCc2c1cc1n(c2=O)Cc2c-1nc1cc(F)c(C)c3c1c2[C@@H](NC(=O)[C@H](O)C1CC1)CCC3` [Compound 11-1, (R)-2-cyclopropyl-N-((1S,10S)-10-ethyl-6-fluoro-10-hydroxy-5-methyl-11,14-dioxo-1,2,3,4,10,11,14,16-octahydro-13H-cyclohepta[de]pyrano[3′,4′:6,7]indolizino[1,2-b]quinolin-1-yl)-2-hydroxyacetamide]: the IC50 came out at 2.2 nM in the experiment on SK-BR-3 (Homo sapiens, SK-BR-3 cells, 72 h, CTG, read-out: IC50 (nM), antiproliferative activity on SK-BR-3); 3.9 nM in the experiment on MDA-MB-468 (Homo sapiens, MDA-MB-468 cells, 72 h, CTG, read-out: IC50 (nM), antiproliferative activity on MDA-MB-468); 2.5 nM in the experiment with NCI-N87 (Homo sapiens, NCI-N87 cells, 72 h, CTG, read-out: IC50 (nM), antiproliferative activity on cells NCI-N87).
`CC[C@@]1(O)C(=O)OCc2c1cc1n(c2=O)Cc2c-1nc1cc(F)c(C3CC3)c3c1c2[C@@H](NC(=O)C[C@H](O)C1CC1)CC3` [Compound 34-1, (S)-3-cyclopropyl-N-((1S,9S)-4-cyclopropyl-9-ethyl-5-fluoro-9-hydroxy-10,13-dioxo-2,3,9,10,13,15-hexahydro-1H,12H-benzo[d]pyrano[3′,4′:6,7]indolizino[1,2-b]quinolin-1-yl)-3-hydroxypropanamide]: the IC50 in the experiment on MDA-MB-468 (setting [4]) is 4 nM; in the experiment with NCI-N87 (setting [5]) it was 6 nM.
As for `CC[C@@]1(O)C(=O)OCc2c1cc1n(c2=O)Cc2c-1nc1cc(F)c(C3CC3)c3c1c2[C@@H](NC(=O)C[C@@H](O)C1CC1)CC3` [Compound 34-2, (R)-3-cyclopropyl-N-((1S,9S)-4-cyclopropyl-9-ethyl-5-fluoro-9-hydroxy-10,13-dioxo-2,3,9,10,13,15-hexahydro-1H,12H-benzo[d]pyrano[3′,4′:6,7]indolizino[1,2-b]quinolin-1-yl)-3-hydroxypropanamide], the IC50 stood at 4.8 nM with SK-BR-3 (setting [1]), 4 nM with MDA-MB-468 (setting [2]) and 6 nM in the experiment on NCI-N87 (setting [3]).
In the same order, the values of `CC[C@@]1(O)C(=O)OCc2c1cc1n(c2=O)Cc2c-1nc1cc(F)c(C)c3c1c2[C@@H](NC(=O)[C@H]1C[C@@H](O)C1)CCC3` [Compound 10, (1S,3R)—N-((1S,10S)-10-ethyl-6-fluoro-10-hydroxy-5-methyl-11,14-dioxo-1,2,3,4,10,11,14,16-octahydro-13H-cyclohepta[de]pyrano[3′,4′:6,7]indolizino[1,2-b]quinolin-1-yl)-3-hydroxycyclobutane-1-carboxamide] are 10 nM, 13 nM and 23 nM.
For `CC[C@@]1(O)C(=O)OCc2c1cc1n(c2=O)Cc2c-1nc1cc(F)c(C3CC3)c3c1c2[C@@H](NC(=O)[C@H](O)C1CC1)CCC3` [Compound 33-1, (R)-2-cyclopropyl-N-((1S,10S)-5-cyclopropyl-10-ethyl-6-fluoro-10-hydroxy-11,14-dioxo-1,2,3,4,10,11,14,16-octahydro-13H-cyclohepta[3′,4′:6,7]indolizino[1,2-b]quinolin-1-yl)-2-hydroxyacetamide], the IC50 in the experiment on MDA-MB-468 (setting [4]) was 6 nM; in the experiment on NCI-N87 (setting [5]), 8 nM.
Consider “(S)—N-((1S,10S)-10-ethyl-6-fluoro-10-hydroxy-5-methyl-11,14-dioxo-1,2,3,4,10,11,14,16-octahydro-13H-cyclohepta[3′,4′:6,7]indolizino[1,2-b]quinolin-1-yl)-3-hydroxy-4-methylpentanamide [Compound 37-1]”, for which the IC50 in the experiment with MDA-MB-468 (setting [4]) is 19 nM.
`CC[C@@]1(O)C(=O)OCc2c1cc1n(c2=O)Cc2c-1nc1cc(F)c(C3CC3)c3c1c2C(NC(=O)[C@H]1C[C@@H](O)C1)CC3` (stereo partly drawn) [Compound 18-1, (1S,3S)—N-((1R,9S)-4-cyclopropyl-9-ethyl-5-fluoro-9-hydroxy-10,13-dioxo-2,3,9,10,13,15-hexahydro-1H,12H-benzo[d]pyrano[3′,4′:6,7]indolizino[1,2-b]quinolin-1-yl)-3-hydroxycyclobutane-1-carboxamide]: the IC50 in the experiment on SK-BR-3 (setting [1]) amounted to 13.8 nM; in the experiment on NCI-N87 (setting [3]), 11.2 nM.

The record behind these values is patent US20260209242A1, “CAMPTOTHECIN DERIVATIVE, PHARMACEUTICAL COMPOSITION, AND PREPARATION METHOD AND USE THEREFOR” (priority 2022, published 2026).
